Series [1] concerns the target T1, mouse group 1B PLA2 (mps PLA2) (Mus musculus, UniProt Q9Z0Y2).
T1 construct: made in house; host or cells: E. coli
Briefly: Example 8 fluorimetric PLA2 inhibition assay (PPyrPM), mouse enzyme. In kind it is biochemical. An excerpt: (§1) In this example, a fluorimetric assay procedure was used to evaluate the indole and indole-related compounds of the invention as inhibitors of group 1B phospholipase A2 (PLA2) from human, mouse and porcine. A description of this assay is found in articles: Leslie, C C and Gelb, M H (2004) Methods in Molecular Biology “Assaying phospholipase A2 activity”, 284:229-242; Singer, A G, et al. (2002) Journal of Biological Chemistry “Interfacial kinetic and binding properties of the complete set of human and mouse groups I, II, V, X, and XII secreted phospholipases A2”, 277:48535-48549, which are incorporated herein as references.
(§2) In general, this assay used a phosphatidylmethanol substrate with a pyrene fluorophore on the terminal end of the sn-2 fatty acyl chain. Without being bound by theory, close proximity of the pyrenes from neighboring phospholipids in a phospholipid vesicle caused the spectral properties to change relative to that of monomeric pyrene. Bovine serum albumin was present in the aqueous phase and captured the pyrene fatty acid when it is liberated from the glycerol backbone owing to the PLA2-catalyzed reaction. However, a potent inhibitor can inhibit the liberation of pyrene fatty acid from the glycerol backbone. […] The effect of a given inhibitor and inhibitor concentration on human, mouse and porcine phospholipase was determined.
Recombinant human and mouse group 1B PLA2 were cloned and expressed in E. coli as insoluble inclusion bodies. The inclusion bodies were isolated and purified by sonicating cell pellet in lysis buffer (50 mM Tris-HCl pH 7.0, 250 mM NaCl, 0.5% Triton 100), centrifugation at 12,000×g, and washing three times in washing buffer (20 mM Tris-HCl pH 7.0, 250 mM NaCl, 0.5% Triton 100). […]
(§3) The following procedure was performed to evaluate the inhibitory potency of the evaluated compounds. • 1. […]

The target of series [2] is T2, Porcine group 1B phospholipase A2 (pps PLA2) (Sus scrofa, UniProt P00592).
T2 construct: purchased
T2 sequence (P00592 23-146): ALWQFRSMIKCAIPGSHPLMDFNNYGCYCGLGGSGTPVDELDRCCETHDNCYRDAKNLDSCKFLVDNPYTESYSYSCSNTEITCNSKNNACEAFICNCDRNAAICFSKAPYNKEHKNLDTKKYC
Description: Example 8 fluorimetric PLA2 inhibition assay (PPyrPM), porcine enzyme. In kind it is biochemical. The settings on record: read-out: ILYPSA IC50 pps PLA2.
Description: as §1
In general, this assay used a phosphatidylmethanol substrate with a pyrene fluorophore on the terminal end of the sn-2 fatty acyl chain. […] The effect of a given inhibitor and inhibitor concentration on human, mouse and porcine phospholipase was determined. […]
The following procedure was performed to evaluate the inhibitory potency of the evaluated compounds. • 1. […] The fluorescence was read using an excitation of 342 nm and an emission of 395 nm.
Evaluated compounds were tested in duplicate and their values were averaged to plot the inhibition curve and calculate the IC50. […] The IC50 was calculated using the BioDataFit 1.02 (Four Parameter Model) software package. […]

In series [3] the target is T3, human group 1B PLA2 (hps PLA2) (Homo sapiens, UniProt P04054).
T3 construct: made in house; host or cells: E. coli
T3 sequence (P04054 23-148): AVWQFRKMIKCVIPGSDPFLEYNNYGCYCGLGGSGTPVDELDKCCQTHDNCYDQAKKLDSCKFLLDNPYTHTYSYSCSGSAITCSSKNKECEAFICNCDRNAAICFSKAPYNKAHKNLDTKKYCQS
Description: Example 8 fluorimetric PLA2 inhibition assay (PPyrPM), human enzyme. The series is classed as biochemical. To be noted: read-out: ILYPSA IC50 hps PLA2.
Description: as §1
as §2, with “reaction.” for “reaction. However, a potent inhibitor can inhibit the liberation of pyrene fatty acid from the glycerol backbone.”, “determined. […]” for “determined.”
as §3

The subject of the next series is Caco-2 cells. Description: Example 6B Caco-2 permeability study. The series is classed as in vitro ADME, human. The settings on record: 10 uM in apical wells, paracellular transport control. On the procedure:
The culture medium was refreshed every 48 hours.
Papp=(dQ/dt)×(1/C0)×(1/A)
(In general: Caco-2 monolayers are a common model of the intestinal barrier.)

Read-outs that look alike come from different tables or passages of the source.

As a reminder, the IC50 is the midpoint of a concentration-inhibition curve.

T1 sequence (Q9Z0Y2 23-146): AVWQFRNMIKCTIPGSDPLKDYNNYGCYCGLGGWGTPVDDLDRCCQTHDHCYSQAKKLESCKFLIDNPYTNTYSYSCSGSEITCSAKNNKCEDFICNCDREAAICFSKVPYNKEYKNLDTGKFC

Take “2-(3-Aminooxalyl-1-{12-[3-aminooxalyl-4-(1-carboxy-2-methyl-propoxy)-2-methyl-indol-1-yl]-dodecyl}-2-methyl-1H-indol-4-yloxy)-3-methyl-butyric acid [ILY-V-44]”: the figures for the IC50 in series [1] (read-out: ILYPSA IC50 mps PLA2), in series [2] and in series [3] were 480 nM, 50 nM and 280 nM, respectively.

As for `Cc1c(C(=O)C(N)=O)c2c(OC(C(=O)O)C(C)C)cccc2n1CCCCCCCCCCCCOc1ccccc1OCCCCCCCCCCCCn1c(C)c(C(=O)C(N)=O)c2c(OC(C(=O)O)C(C)C)cccc21` (centres unmarked) [ILY-V-33, 2-{3-Aminooxalyl-1-[12-(2-{12-[3-aminooxalyl-4-(1-carboxy-2-methyl-propoxy)-2-methyl-indol-1-yl]-dodecyloxy}-phenoxy)-dodecyl]-2-methyl-1H-indol-4-yloxy}-3-methyl-butyric acid], half-maximal inhibition in series [1] (IC50) required 300 nM.

On to Lucifer Yellow, for which the apparent permeability entry in the series with Caco-2 cells is recorded as “around 2.82×10^−7+/−0.37×10^−7 cm/s”.

The record behind these values is patent US20090318492A1, “INDOLE COMPOUNDS HAVING C4-ACIDIC SUBSTITUENTS AND USE THEREOF AS PHOSPHOLIPASE-A2 INHIBITORS” (priority 2005, published 2009).
